Measurements taken from patent publication US7348400B2 (priority 2001, dated 2008).
Entries after “also recorded” stand apart in the source; their conditions may differ.

Columns and labels:
[1] = tested on: unmyelinated primary afferent sensory nerves; conditions: rat, in vivo
[2] = tested on: injured nerve (sensory nerves); conditions: rat, in vivo
[3] = in vivo; cited from earlier work
[4] = rat, in vivo
[5] = rat, in vivo; remark: listed apart in the source
neuronal nAChR = assay type: cell-based, bovine
nAChR = assay type: binding, bovine
[6] = tested on: rats with chronic constriction injury; conditions: rat, in vivo

CSCC[C@@H]1NC(=O)[C@H](CC(C)C)NC(=O)[C@H](CCCNC(=N)N)NC(=O)[C@H](CO)NC(=O)[C@@H]2CSSC[C@@H]3NC(=O)[C@H](CO)NC(=O)CNC(=O)[C@H]([C@@H](C)O)NC(=O)[C@H](CSSC[C@H](N)C(=O)N[C@@H](CCCCN)C(=O)NCC(=O)N[C@@H](CCCCN)C(=O)NCC(=O)N[C@@H](C)C(=O)N[C@@H](CCCCN)C(=O)N2)NC(=O)[C@H](CSSC[C@@H](C(N)=O)NC(=O)[C@H](CCCCN)NC(=O)CNC(=O)[C@H](CO)NC(=O)[C@H](CCCNC(=N)N)NC3=O)NC(=O)[C@H](CC(=O)O)NC(=O)[C@H](Cc2ccc(O)cc2)NC1=O [MVIIA]
inhibition of the vascular response to LFES of sensory nerves [1]: significant inhibition; also recorded: more effective
recovery of vascular response to substance P compared to control [2]: 54%
potency relative to morphine [3]: 1000 times

CC[C@H](C)[C@@H]1NC(=O)[C@H](CCC(=O)O)NC(=O)[C@@H]2CCCN2C(=O)[C@H](Cc2cnc[nH]2)NC(=O)[C@H](CC(=O)O)NC(=O)[C@H](Cc2ccc(O)cc2)NC(=O)[C@H](CC(N)=O)NC(=O)[C@@H]2CSSC[C@H](NC(=O)CN)C(=O)N[C@@H](CSSC[C@@H](C(N)=O)NC1=O)C(=O)N[C@@H](CO)C(=O)N[C@@H](CC(=O)O)C(=O)N1CCC[C@H]1C(=O)N[C@@H](CCCNC(=N)N)C(=O)N2 [Vc1.1, GCCSDPRCNYDHPEIC-NH2]
effect upon systemic blood pressure [4]: no effect
adverse side-effects [5]: not observed any adverse side-effects

G C C S H P A C Y A N N Q D Y C-NH2 [An1.1]
inhibition of the neuronal nicotinic response in cultured BCCs (comparison) (neuronal nAChR): not nearly as inhibitory as Vc1.1
nature of the inhibition of nicotine-evoked catecholamine release (neuronal nAChR): competitive inhibitor
protection against nicotinic receptor desensitisation (neuronal nAChR): protects against nicotinic receptor desensitisation

GCCSD4 -HypRCNYDHPgammacarboxy-GluIC-NH2 [Vc1.1ptm]
displacement of 3H-epibatidine binding (nAChR): displaced the first component, but did not significantly displace the second component
long-term effectiveness in inhibiting neuropathic pain [6]: without effect; also recorded: but not Vc1.1ptm was effective
inhibition of sensory nerve activity (comparison) [1]: less effective than Vc1.1
recovery of vascular response to substance P compared to control [2]: 85%
